In one series the test system is Human Platelets. As to the kind of experiment: Antiaggregatory action in human platelets (ADP-induced aggregation in platelet-rich plasma). In kind it is cell-based. The conditions noted are these: Platelet, human PRP, read-out: Test 1 (% inhibition) of platelet aggregation; for inhibition at 10 µg/mL: 10 μg/ml test compound; for inhibition at 30 µg/mL: 30 μg/ml test compound; for inhibition at 100 µg/mL: 100 μg/ml test compound. The protocol: Antiaggregatory Action in Human Platelets
Platelet aggregation was measured using an automatic platelet aggregometer (PAM-8C, Mebanix) using the method of G.V.R. Born [Nature, 194, 927-929 ([…])] with a slight modification. Blood was collected from the antecubital vein of healthy volunteers who had not taken any medications for two weeks using 3.8% sodium citrate as an anticoagulant ( 1/9 volumes of blood). Platelet-rich plasma (PRP) was obtained by centrifugation (CR5DL, Hitachi) at 200× g for 15 min at room temperature. Platelet-poor plasma (PPP) was obtained by centrifugation of the remaining blood at 2,000× g for 10 min at room temperature. Platelet counts in PRP were measured by an automatic hematology analyzer (K-1000, Toa Iyo Denshi), and adjusted to 3×10^8 /ml by adding PPP. PRP prepared as described above was used for the platelet aggregation experiment. PRP (0.24 ml) containing a test compound was added to a cuvette and set placed in the platelet aggregometer. After pre-incubation for 1.5 min at 37° C., 0.01 ml of 0.25 mM ADP were added to the cuvette to induce platelet aggregation. Platelet aggregation was monitored for 10 min.
Antiaggregatory action of the test compound was determined as a percent inhibition (%) against platelet aggregation of a control (free of the test compound).

For a further series, the system named is platelet aggregation. The experiment in a line: Antiaggregatory action in rats (ADP-induced platelet aggregation in PRP after intravenous administration). In kind it is in vivo. The conditions noted are these: Rattus norvegicus, 1 h, male SD rats, blood collected one hour after administration, versus control rats, read-out: Test 2 (% inhibition). On the procedure: Antiaggregatory Action in Rats
Platelet aggregation was measured using an automatic platelet aggregometer (PAM-8C, Mebanix) using the method of G.V.R. Born [Nature, 194, 927-929(1962)] with a slight modification. The experimental animals were male SD rats (Japan SLC). One hour after intravenous administration of a test compound to the rats, blood was collected from the abdominal aorta under anesthesia, using 3.8% sodium citrate as an anticoagulant ( 1/9 volumes of blood). Platelet-rich plasma (PRP) was obtained by centrifugation (CR5DL, Hitachi) at 230× g for 15 min at room temperature. Platelet-poor plasma (PPP) was obtained by centrifugation of the remaining blood at 2,000× g for 10 min at room temperature. Platelet counts in PRP were measured by an automatic hematology analyzer (K-1000, Toa Iyo Denshi), and adjusted to 5×10^8 /ml by adding PPP, and then used for the platelet aggregation experiment. PRP (0.24 ml) was added to a cuvette and placed in the platelet aggregometer. After pre-incubation for 1.5 min at 37° C., 0.01 ml of 0.75 mM ADP were added to the cuvette to induce platelet aggregation. Platelet aggregation was monitored for 8 min.
Antiaggregatory action (% inhibition) of the test compound was determined from a comparison of the maximum aggregation of the test compound-treated rat with that of control rats (free of the administration of the test compound).

SMILES strings stand for the structures.

Take `COC(=O)/C=C1\CN(C(C(=O)OC)c2ccccc2Cl)CCC1SS(=O)(=O)c1ccc(C)cc1` (stereo not drawn) [Example 7 (ii), (E)-1-(2-Chloro-α-methoxycarbonylbenzyl)-3-methoxycarbonylmethylidene-4-(4-methylphenylsulfonylthio)piperidine]: the melting point (in general, the temperature of the solid-liquid transition) fell in the range of 144 to 146 °C. In the series with Human Platelets, the inhibition (in general, the change of the read-out against control, counted positive when it falls) at 10 µg/mL stood at 34.5% and the inhibition at 30 µg/mL was found to be 81.5%.
Consider `Cc1ccc(S(=O)(=O)SC2CCN(C(C(=O)C3CC3)c3ccccc3F)CC2)cc1` (stereo not drawn) [Example 1, 1-(α-Cyclopropylcarbonyl-2-fluorobenzyl)-4-(4-methylphenylsulfonylthio)-piperidine], for which the melting point was 63 to 69 °C. In the series with Human Platelets, the inhibition at 10 µg/mL came out at 36.5%, the inhibition at 30 µg/mL was found to be 99.6% and the inhibition at 100 µg/mL came out at 100%.
Turning to `CCOC(=O)/C=C1\CN(C(C(=O)OC)c2ccccc2Cl)CCC1SS(=O)(=O)c1ccc(C)cc1.Cl` (stereo not drawn) [Example 7 (d), (E)-1-(2-chloro-α-methoxycarbonylbenzyl)-3-ethoxycarbonylmethylidene-4-(4-methylphenylsulfonylthio)piperidine hydrochloride], the melting point was in the range of 73 to 78 °C. Besides, in the series with Human Platelets, the inhibition at 10 µg/mL stood at 24.6%, the inhibition at 30 µg/mL is 60% and the inhibition at 100 µg/mL came to 99.1%. Also, the inhibition at 10 mg/kg in the series with platelet aggregation was 59%.
In turn, `CS(=O)(=O)SC1CCN(C(C(=O)C2CC2)c2ccccc2F)CC1` (stereo not drawn) [Example 8, 1-(α-Cyclopropylcarbonyl-2-fluorobenzyl)-4-methylsulfonylthiopiperidine] showed a melting point of 89 to 91 °C. In the series with Human Platelets, the inhibition at 10 µg/mL worked out at 19.5%, the inhibition at 30 µg/mL amounted to 88% and the inhibition at 100 µg/mL turned out to be 100%.
For `N[C@@H](CSSC1CCN(C(C(=O)C2CC2)c2ccccc2F)C/C1=C/C(=O)O)C(=O)O` (stereo partly drawn) [Example 19 (d), (Z)-4-[(R)-2-Amino-2-carboxyethyldisulfanyl]-3-carboxymethylidene-1-(α-cyclopropylcarbonyl-2-fluorobenzyl)piperidine], the inhibition at 10 mg/kg in the series on platelet aggregation came to 89.2%.
On to `Cc1ccc([S+]([O-])SC2CCN(C(C(=O)C3CC3)c3ccccc3F)C2)cc1` (stereo not drawn) [Example 14, 1-(α-Cyclopropylcarbonyl-2-fluorobenzyl)-3-(4-methylphenylsulfinylthio)-pyrrolidine], for which the melting point was in the range of 87 to 100 °C.
Turning to `CCOC(=O)/C=C1\CN(C(C(=O)C2CC2)c2ccccc2F)CCC1SS(=O)(=O)c1ccc(C)cc1` (stereo not drawn) [Example 6 (d), (E)-1-(α-Cyclopropylcarbonyl-2-fluorobenzyl)-3-ethoxycarbonylmethylidene-4-(4-methylphenylsulfonylthio)piperidine], in the series with Human Platelets, the inhibition at 10 µg/mL was found to be 22.5%, the inhibition at 30 µg/mL stood at 53.2% and the inhibition at 100 µg/mL worked out at 100%. The inhibition at 10 mg/kg in the series with platelet aggregation came to 51.8%.
Molecule `N[C@@H](CSSC1CCN(C(C(=O)C2CC2)c2ccccc2F)C/C1=C/C(=O)O)C(=O)O` (stereo partly drawn) [Example 19, (Z)-4-[(R)-2-Amino-2-carboxyethyldisulfanyl]-3-carboxymethylidene-1-(α-cyclopropylcarbonyl-2-fluorobenzyl)piperidine] had a melting point of 135 to 138 °C.
The same measure, in the same setting: the figure for `O=C(C1CC1)C(c1ccccc1F)N1CCC(SS(=O)(=O)c2ccc(Cl)cc2)CC1` (stereo not drawn) [Example 10, 4-(4-Chlorophenylsulfonylthio)-1-(α-cyclopropylcarbonyl-2-fluorobenzyl)-piperidine] is 108 to 116 °C.

Source of the values: patent publication US6610708B1, “Cyclic amino compounds” (Sankyo Company, Limited, priority 1998, dated 2003).
